PubChem BioAssay (NCI)
Several values for one entry are separate records, joined by “and”; a condition that tells them apart may be missing. Equal values may be shown once.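 Each compound was tested at five concentrations against cells in 96-well plates for 48 hours. Abbreviation: GI50, concentration required for 50% inhibition of growth. TGI denotes the concentration required for complete inhibition of growth.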

What was measured:
Assay in all cases: NCI-60 cell line screen, 48 h
SNB-78 CNS = system: SNB-78 CNS
HT29 colon = system: HT29 colon
DLD-1 colon = system: DLD-1 colon
OVCAR-3 ovarian = system: OVCAR-3 ovarian
KM20L2 colon = system: KM20L2 colon
LXFL 529 NSCLC = system: LXFL 529 NSCLC
BT-549 breast = system: BT-549 breast
MCF7 breast = system: MCF7 breast
T-47D breast = system: T-47D breast
DU-145 prostate = system: DU-145 prostate
MDA-MB-231 breast = system: MDA-MB-231 breast
HS 578T breast = system: HS 578T breast

Row | SMILES | TGI (SNB-78 CNS) | TGI (HT29 colon) | TGI (DLD-1 colon) | TGI (OVCAR-3 ovarian) | TGI (KM20L2 colon) | TGI (LXFL 529 NSCLC) | GI50 (BT-549 breast) | TGI (BT-549 breast) | GI50 (MCF7 breast) | TGI (MCF7 breast) | GI50 (HT29 colon) | GI50 (OVCAR-3 ovarian) | GI50 (T-47D breast) | TGI (T-47D breast) | GI50 (DU-145 prostate) | TGI (DU-145 prostate) | GI50 (MDA-MB-231 breast) | TGI (MDA-MB-231 breast) | GI50 (HS 578T breast) | TGI (HS 578T breast)
1 | O=C(c1ccccc1)[C@@H]1C[C@H](Sc2ccccc2)c2cc(Cl)ccc2N1 | > 100 µM | 56.3 µM | > 100 µM | 52.2 µM | 70.3 µM | 77.5 µM | – | – | – | – | – | – | – | – | – | – | – | – | – | –
2 | CCCCCCCCCCCCOC1C(C(COC2OC(C3COC(C)(C)O3)C3OC(C)(C)OC23)NC(=O)NS(=O)(=O)c2ccccc2)OC2OC(C)(C)OC21 (stereo unspecified) | – | 16.4 µM | – | 8.39 µM | – | – | 3.61 µM | 13.1 µM | 2.98 µM | 12.9 µM | 4.32 µM | 2.78 µM | 8.66 µM | 39.5 µM | 2.74 µM | 8.39 µM | 9.94 µM | 24.3 µM | 2.9 µM | 11.1 µM
3 | O=C1C=CC[C@H](/C=C/c2ccccc2)O1 | – | 23.9 µM | – | 7.31 µM | – | – | 2.28 µM | 19.3 µM | 1.65 µM | > 37.8 µM | 1.88 µM | 1.94 µM | 6.29 µM | 37.7 µM | 2.82 µM | 9.07 µM | 5.42 µM | 32.4 µM | 3.15 µM | 30.4 µM
4 | COc1ccc(/C=C(\C#N)n2nnc3ccccc32)cc1 | – | > 100 µM | – | – | – | – | 1.11 µM | 17.1 µM | 0.328 µM | > 100 µM | 0.0453 µM | 0.046 µM | 0.0865 µM | 72.9 µM | 0.323 µM | – | 0.525 µM | 3.47 µM | 0.396 µM | > 100 µM
5 | CNC(=O)CC1NC(=O)c2csc(n2)-c2ccc(-c3nc(C4=NC(C(=O)N5CCCC5C(N)=O)CO4)cs3)nc2-c2csc(n2)-c2csc(n2)C(C(C)C)NC(=O)CNC(=O)c2csc(n2)C(C(C)C)NC(=O)c2nc1sc2C (stereo unspecified) | – | – | – | 0.937 µM | – | – | > 25 µM | 4.5 µM and > 25 µM | < 0.001 µM | – | < 0.001 µM | – | > 25 µM | > 25 µM | > 25 µM | > 25 µM | > 25 µM | 2.73 µM and > 25 µM | < 0.001 µM | –
6 | Cc1cc(=O)[nH]c2cc3c(c4c(n3Cc3ccc(Cl)cc3Cl)CC(C)(C)CC4=O)c(O)c12 | – | > 100 µM | – | > 100 µM | – | – | 19.6 µM | 64.2 µM | > 100 µM | > 100 µM | > 100 µM | > 100 µM | > 100 µM | > 100 µM | 46.2 µM | > 100 µM | > 100 µM | > 100 µM | 49.2 µM | > 100 µM
7 | Cc1ccc(NC(=O)C(=O)CC(=O)c2c(C)n([O-])c3ccccc3[n+]2=O)cc1 | > 100 µM | 86.4 µM | – | 35.1 µM | 71.8 µM | > 100 µM | – | – | – | – | – | – | – | – | – | – | – | – | – | –
8 | Cc1ccc2nc(-c3ccccc3)c(N=O)n2c1 | – | > 100 µM | – | > 100 µM | – | – | – | > 100 µM | – | > 100 µM | – | – | – | > 100 µM | – | > 100 µM | – | 73.1 µM | – | > 100 µM
9 | Oc1[nH]c2c(Br)cccc2c1C1=Nc2ccccc2/C1=N/OCCN1CCCC1 | – | 6.6 µM | – | 3.45 µM | – | – | 1.24 µM | 2.85 µM | 0.781 µM and 0.57 µM | > 100 µM | 0.561 µM | 1.48 µM | 3.51 µM | – | 0.688 µM | 4.31 µM | 1.31 µM and 1.21 µM | 4.95 µM and 7.97 µM | 1.2 µM | 3 µM
10 | COc1cc(NC(=O)CSc2nc3ccc(C)cc3c(=O)n2Cc2ccccc2)cc(OC)c1OC | – | > 100 µM | – | > 100 µM | – | – | 2.98 µM | 20 µM | 9.98 µM | > 100 µM | > 100 µM | 9.36 µM | 4.01 µM | 66.9 µM | 84.7 µM | > 100 µM | 3.42 µM | > 100 µM | 3.23 µM | > 100 µM
11 | Oc1ccccc1C=Nc1nc(SCc2ccccc2)nc2[nH]ncc12 | – | > 100 µM | – | > 100 µM | – | – | > 100 µM | > 100 µM | 39.1 µM | > 100 µM | 54.6 µM | 64.5 µM | 26.7 µM | 70.2 µM | > 100 µM | > 100 µM | 29.2 µM | > 100 µM | 11 µM | 44.7 µM
12 | O=S(=O)(c1cccc2c(Cl)cccc12)N1CCCNCC1 | – | 18.1 µM | – | 29.4 µM | – | – | 19.8 µM | 36.4 µM | 24.5 µM | 50.8 µM | 3.62 µM | 14.6 µM | 11.7 µM | 29.4 µM | 17.1 µM | 32.1 µM | 5.49 µM | 19.3 µM | 21.4 µM | 45.4 µM
13 | O=C(Nc1ccc2[nH]c(=S)sc2c1)Nc1ccccc1F | – | > 100 µM | – | > 100 µM | – | – | 32 µM | > 100 µM | 36.7 µM | > 100 µM | 44.3 µM | 34.8 µM | 4.47 µM | 33.4 µM | 59.4 µM | > 100 µM | 23.1 µM | > 100 µM | 37.6 µM | > 100 µM
14 | Cc1cc(Cc2cc(C)cc(C(C)(C)C)c2O)c(O)c(Cc2cc(C)cc(C(C)(C)C)c2O)c1 | – | 7.78 µM | – | 10.4 µM | – | – | – | 10.6 µM | – | 7.93 µM | – | – | – | 11.3 µM | – | 13.7 µM | – | 4.25 µM | – | 5.93 µM
15 | N#CC1=C(N)Oc2c(sc3c(Br)cccc23)C1c1ccc(Br)cc1 (stereo unspecified) | – | 1.21 µM | – | 1.15 µM | – | – | 1.32 µM | 12.7 µM | 0.382 µM | 12.4 µM | 0.315 µM | 0.307 µM | 0.397 µM | 4.67 µM | 0.571 µM | 2.82 µM | 1.21 µM | 3.7 µM | 2.44 µM | 13.5 µM
16 | O=c1nc(NC(c2ccccc2)(c2ccccc2)c2ccccc2)ccn1CCNCCn1ccc(NC(c2ccccc2)(c2ccccc2)c2ccccc2)nc1=O | – | 24.5 µM | > 100 µM | 58.3 µM | 30.1 µM | 26.2 µM | – | – | – | – | – | – | – | – | – | – | – | – | – | –
